Measured values as given in ChEMBL document CHEMBL5244209, “Antiplasmodial and antimalarial activities of quinolone derivatives: An overview” (Eur J Med Chem, 2018).
In brackets after ≈: the same amount, converted by molar mass.

Experiments:
[1] = test system: Plasmodium falciparum; assay: Antimalarial activity against chloroquine-sensitive Plasmodium falciparum FCC1 measured after 48 hrs; assay type: functional, organism-based; settings: FCC1, 48 h
[2] = test system: Plasmodium falciparum; assay: Antiplasmodial activity against chloroquine-resistant Plasmodium falciparum W2; assay type: functional, organism-based
[3] = test system: Plasmodium falciparum; assay: Antimalarial activity against chloroquine-resistant Plasmodium falciparum VNS measured after 48 hrs; assay type: functional, organism-based
[4] = test system: Plasmodium falciparum; assay: Antimalarial activity against blood stage chloroquine-sensitive Plasmodium falciparum NF54-R infected in erythrocytes assessed as reduction in parasite growth preincubated for 72 hrs followed by addition of [3H]Hypoxanthine and measured after 24 hrs by liquid scintillation counting method; assay type: functional, organism-based; settings: Erythrocyte
[5] = test system: Plasmodium falciparum; assay: Antiplasmodial activity against chloroquine-sensitive Plasmodium falciparum; assay type: functional, organism-based
[6] = test system: Plasmodium falciparum; assay: Antiplasmodial activity against chloroquine-resistant Plasmodium falciparum Palo Alto; assay type: functional, organism-based
[7] = test system: Plasmodium falciparum; assay: Antiplasmodial activity against chloroquine-resistant Plasmodium falciparum; assay type: functional, organism-based
[8] = test system: Plasmodium falciparum; assay: Antiplasmodial activity against chloroquine-resistant Plasmodium falciparum Bres1; assay type: functional, organism-based
[9] = test system: Plasmodium falciparum; assay: Antimalarial activity against blood stage chloroquine-sensitive Plasmodium falciparum 3D7 infected in erythrocytes assessed as reduction in parasite growth preincubated for 72 hrs followed by addition of [3H]Hypoxanthine and measured after 24 hrs by liquid scintillation counting method; assay type: functional, organism-based; settings: 3D7, Erythrocyte
[10] = test system: Plasmodium yoelii yoelii; assay: Antimalarial activity against hepatic stage Plasmodium yoelii yoelii 265 BY for 48 hrs with media renew every 24 hrs; assay type: functional, organism-based
[11] = test system: Plasmodium falciparum; assay: Antiplasmodial activity against chloroquine-sensitive Plasmodium falciparum 3D7; assay type: functional, organism-based
[12] = test system: Plasmodium falciparum; assay: Antiplasmodial activity against chloroquine-resistant Plasmodium falciparum FCR3; assay type: functional, organism-based
[13] = test system: Plasmodium falciparum; assay: Antiplasmodial activity against chloroquine-resistant Plasmodium falciparum Fcb1; assay type: functional, organism-based
[14] = test system: Plasmodium falciparum; assay: Antiplasmodial activity against synchronized Plasmodium falciparum K1; assay type: functional, organism-based
[15] = test system: Plasmodium falciparum; assay: Antiplasmodial activity against chloroquine-sensitive Plasmodium falciparum FC measured after 96 hrs; assay type: functional
[16] = test system: Plasmodium falciparum; assay: Antiplasmodial activity against chloroquine-resistant Plasmodium falciparum K1 measured after 48 hrs; assay type: functional
[17] = test system: Plasmodium falciparum; assay: Antiplasmodial activity against chloroquine-sensitive Plasmodium falciparum FC measured after 48 hrs; assay type: functional
[18] = test system: Plasmodium falciparum; assay: Antiplasmodial activity against synchronized Plasmodium falciparum CS2; assay type: functional, organism-based
[19] = test system: Plasmodium falciparum; assay: Antiplasmodial activity against asynchronous Plasmodium falciparum 3D7; assay type: functional, organism-based
[20] = test system: Plasmodium falciparum; assay: Antiplasmodial activity against asynchronous Plasmodium falciparum K1; assay type: functional, organism-based
[21] = test system: Plasmodium falciparum; assay: Antiplasmodial activity against synchronized Plasmodium falciparum 3D7; assay type: functional, organism-based
[22] = test system: Plasmodium falciparum; assay: Antiplasmodial activity against asynchronous Plasmodium falciparum CS2; assay type: functional, organism-based
[23] = test system: Plasmodium falciparum; assay: Antiplasmodial activity against chloroquine-sensitive Plasmodium falciparum K1 measured after 96 hrs; assay type: functional
[24] = test system: Plasmodium falciparum; assay: Antimalarial activity against Plasmodium falciparum Dd2; assay type: functional, organism-based

Row | SMILES | IC50 [1] [µM] | IC50 [2] [µM] | IC50 [3] [µM] | IC50 [4] [µg/mL] | IC50 [5] [µg/mL] | IC50 [6] [µM] | IC50 [7] [µg/mL] | IC50 [9] [µg/mL] | IC50 [10] [µg/mL] | IC50 [11] [µM] | IC50 [12] [µM] | IC50 [14] [µM] | IC50 [18] [µM] | IC50 [19] [µM] | IC50 [20] [µM] | IC50 [21] [µM] | IC50 [22] [µM] | further results
1 | CC1COc2c(N3CCN(C)CC3)c(F)cc3c(=O)c(C(=O)O)cn1c23 (configuration not stated) [OFLOXACIN] | 1720 | 112 | 1770 | 58.6 (≈ 162 µM) | 22.3 (≈ 61.7 µM) | 114 | 22.3 (≈ 61.7 µM) | 113 (≈ 313 µM) | 64 (≈ 177 µM) | 152 | 158 |  |  |  |  |  |  | IC50 [8]: 195 µM
2 | CC(C)=CCC/C(C)=C/CC/C(C)=C/Cc1c(C)[nH]c2ccccc2c1=O [AURACHIN D] |  |  |  |  |  |  |  |  |  |  |  |  |  |  |  |  |  | IC50 [13]: 0.04 µg/mL (≈ 0.11 µM)
3 | O=C(O)c1cn(C2CC2)c2cc(N3CCNCC3)c(F)cc2c1=O [CIPROFLOXACIN] | 260 |  | 380 | 3.4 (≈ 10.3 µM) | 6.38 (≈ 19.3 µM) |  | 6.38 (≈ 19.3 µM) |  | 44 (≈ 133 µM) |  |  | 32 | 20 | 31 | 38 | 31 | 24 | MIC [15]: 2.8 µg/mL (≈ 8.45 µM); MIC [16]: 27.2 µg/mL (≈ 82.1 µM); MIC [17]: 28.1 µg/mL (≈ 84.8 µM); MIC [23]: 4.4 µg/mL (≈ 13.3 µM)
4 | CCn1cc(C(=O)O)c(=O)c2cc(F)c(N3CCNCC3)cc21 [NORFLOXACIN] | 620 | 74.6 | 510 | 6.7 (≈ 21 µM) | 11.2 (≈ 35.2 µM) | 54.1 | 11.2 (≈ 35.2 µM) | 17.2 (≈ 53.9 µM) | 17.8 (≈ 55.7 µM) | 55.3 | 58.6 | 67 | 59 | 66 | 54 | 55 | 55 | 
5 | COc1ccc2c(=O)c(-c3ccc(Oc4ccc(OC(F)(F)F)cc4)cc3)c(C)[nH]c2c1 |  |  |  |  |  |  |  |  |  |  |  |  |  |  |  |  |  | IC50 [24]: 0.00385 µM
